The text below walks through data of PubChem BioAssay (NCI).

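Values below derive from 48-hour exposures of cells grown in 96-well plates, with endpoints linearly interpolated between the two concentrations bracketing the appropriate inhibition level. TGI: concentration producing complete growth inhibition.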 Where a SMILES comes first, the peptide text is derived from it. [ ]: non-standard residue; d: D form. The star is where a group is joined. ξ: configuration not given here. NMeY = CN[C@@H](Cc1ccc(O)cc1)C(=O)O; Cbz = O=C(OCc1ccccc1)*; ξA = CC(N)C(=O)O A value given as a limit tells only on which side of the number the result lay.

Among the test systems are CCRF-CEM leukemia; DU-145 prostate; HCT-15 colon; HL-60(TB) leukemia; HOP-62 NSCLC; HT29 colon; M14 melanoma; MCF7 breast; MDA-MB-231 breast; MDA-MB-435; NCI-H460 lung; SK-MEL-2 melanoma; SK-MEL-5 melanoma; SN12C renal; SNB-19 CNS; SW-620 colon; TK-10 renal; UACC-62 melanoma.
Common to all, as to test: NCI anticancer screen, dose series, 48 h

Turning to `CC1(C)N=C(C(N)=O)c2ncn(Cc3ccccc3)c2N1`, the TGI in the experiment on CCRF-CEM leukemia, with DU-145 prostate, in the experiment on HCT-15 colon, with HL-60(TB) leukemia, in the experiment on HOP-62 NSCLC and in the experiment on HT29 colon was greater than 100 µM each time. The TGI with M14 melanoma, with MCF7 breast, with MDA-MB-231 breast, with MDA-MB-435, with NCI-H460 lung and in the experiment with SK-MEL-2 melanoma was greater than 100 µM throughout. The TGI in the experiment with SK-MEL-5 melanoma, in the experiment with SN12C renal, with SNB-19 CNS, in the experiment on SW-620 colon, in the experiment on TK-10 renal and with UACC-62 melanoma was greater than 100 µM each time.
Take `Cc1cc(NS(=O)(=O)c2ccc(NO)cc2)no1`: the TGI in the experiment with CCRF-CEM leukemia was 44.7 µM; in the experiment with DU-145 prostate, greater than 100 µM; with HCT-15 colon it was greater than 100 µM; with HL-60(TB) leukemia, greater than 100 µM; with HOP-62 NSCLC, greater than 100 µM; in the experiment on HT29 colon, greater than 100 µM. Further, the TGI was greater than 100 µM in the experiment on M14 melanoma; 47.1 µM in the experiment on MCF7 breast; greater than 100 µM in the experiment with MDA-MB-231 breast; 41.4 µM in the experiment on MDA-MB-435; greater than 100 µM in the experiment on NCI-H460 lung; greater than 100 µM in the experiment with SK-MEL-2 melanoma. The TGI was greater than 100 µM with SK-MEL-5 melanoma; 43 µM with SN12C renal; greater than 100 µM with SNB-19 CNS; 82.9 µM in the experiment on SW-620 colon; greater than 100 µM in the experiment on TK-10 renal; greater than 100 µM with UACC-62 melanoma.
Consider `O=S(=O)(O)c1c(Cl)c(Cl)c(O)c2ncccc12`, for which the TGI was found to be 31.7 µM in the experiment with CCRF-CEM leukemia; 61.4 µM with DU-145 prostate; 27.1 µM with HCT-15 colon; 4.75 µM with HL-60(TB) leukemia; 17.6 µM in the experiment on HOP-62 NSCLC; 24 µM in the experiment on HT29 colon. The TGI is 27.1 µM in the experiment on M14 melanoma; 21.6 µM in the experiment with MCF7 breast; greater than 93.1 µM with MDA-MB-231 breast; 30.5 µM with MDA-MB-435; 25.5 µM in the experiment on NCI-H460 lung; 45 µM in the experiment on SK-MEL-2 melanoma. The TGI in the experiment on SK-MEL-5 melanoma was 28.6 µM; in the experiment on SN12C renal it was 40.8 µM; with SNB-19 CNS, 44.1 µM; in the experiment on SW-620 colon it was greater than 72.4 µM; with TK-10 renal it was 27.4 µM; in the experiment on UACC-62 melanoma, 29.7 µM.
Regarding `CCCCCN1C(=O)C(Cc2ccccc2)N=C(c2ccc(O)cc2)c2cc(Cl)ccc21` (centres undefined), the TGI in the experiment on CCRF-CEM leukemia was greater than 100 µM; with DU-145 prostate it was 30.9 µM; in the experiment on HCT-15 colon, 21.2 µM; in the experiment on HL-60(TB) leukemia, greater than 100 µM; in the experiment with HOP-62 NSCLC, 52.8 µM; in the experiment on HT29 colon, 25.6 µM. The TGI in the experiment on M14 melanoma was 34.4 µM; with MCF7 breast, 24.8 µM; in the experiment with MDA-MB-231 breast, 35.9 µM; with MDA-MB-435, 24.4 µM; with NCI-H460 lung it was 24.3 µM; in the experiment on SK-MEL-2 melanoma it was 34.4 µM. Moreover, the TGI in the experiment with SN12C renal is greater than 39.6 µM; in the experiment with SNB-19 CNS, 33.7 µM; in the experiment on SW-620 colon, 26.8 µM; in the experiment on TK-10 renal, 31.2 µM; in the experiment with UACC-62 melanoma it was 25 µM.
As to `CSC12c3cc(C)n(-c4ccc(I)cc4)c3CC(C)(C)CN1C(=O)C2Oc1ccccc1` (centres undefined), the TGI in the experiment on CCRF-CEM leukemia, in the experiment on DU-145 prostate, in the experiment with HCT-15 colon, in the experiment on HL-60(TB) leukemia, in the experiment with HOP-62 NSCLC and in the experiment on HT29 colon was greater than 100 µM each time. For the same compound, the TGI with M14 melanoma, with MCF7 breast, in the experiment on MDA-MB-231 breast, in the experiment with MDA-MB-435, in the experiment with NCI-H460 lung and in the experiment on SK-MEL-2 melanoma was greater than 100 µM in each case. Further, the TGI in the experiment on SK-MEL-5 melanoma, with SN12C renal, in the experiment on SNB-19 CNS, with SW-620 colon, in the experiment with TK-10 renal and in the experiment with UACC-62 melanoma was greater than 100 µM in each case.
In the case of `N#Cc1c(-c2ccccc2)cn(C(=O)c2ccccc2)c1N`, the TGI with CCRF-CEM leukemia, with DU-145 prostate, in the experiment with HCT-15 colon, with HL-60(TB) leukemia, with HOP-62 NSCLC and in the experiment with HT29 colon was greater than 100 µM in each case. Moreover, the TGI in the experiment on M14 melanoma, with MCF7 breast, in the experiment with MDA-MB-231 breast, in the experiment on MDA-MB-435, in the experiment on SK-MEL-2 melanoma and in the experiment with SK-MEL-5 melanoma was greater than 100 µM in each case. For the same compound, the TGI in the experiment on SN12C renal, in the experiment on SNB-19 CNS, in the experiment with SW-620 colon, with TK-10 renal and in the experiment with UACC-62 melanoma was greater than 100 µM each time.
As to `COc1ccc(C[C@@H](C(=O)N[C@@H](C)C(N)=O)N(C)C(=O)[C@@H]2CCCN2C(=O)[C@H](CC(C)C)NC(=O)C(C)NC(=O)OCc2ccccc2)cc1` (some centres undefined) (Cbz-[ξA]LP[NMeY](Me)A-NH2), the TGI with CCRF-CEM leukemia, in the experiment with DU-145 prostate, with HCT-15 colon, in the experiment on HL-60(TB) leukemia, in the experiment with HOP-62 NSCLC and in the experiment on HT29 colon was greater than 100 µM each time. In addition, the TGI in the experiment with M14 melanoma, with MCF7 breast, with MDA-MB-231 breast, with MDA-MB-435, with NCI-H460 lung and with SK-MEL-2 melanoma was greater than 100 µM throughout. Besides, the TGI in the experiment with SK-MEL-5 melanoma, with SN12C renal, in the experiment with SNB-19 CNS, in the experiment on SW-620 colon, in the experiment on TK-10 renal and with UACC-62 melanoma was greater than 100 µM each time.
